Data published in ChEMBL document CHEMBL5465560, “Selectivity Literature for EUbOPEN Chemogenomic Library” (2024).
Values belong to the compound of their own block, whether it stands above or below them.

Legend:
[1] = biological target: Casein kinase I isoform gamma-2 (Homo sapiens) (UniProt P78368); assay: Selectivity interaction (ActivX KiNativ screen (kinase selectivity in THP-1 cell lysates)) EUB0000639a CSNK1G2; assay type: subcellular; settings: lysate
Misshapen-like kinase 1 = Misshapen-like kinase 1 (Homo sapiens, UniProt Q8N4C8); assay: Selectivity interaction (Enzymatic assay) EUB0001199aCl MINK1
Misshapen-like kinase 1, sequence (Q8N4C8 whole entry): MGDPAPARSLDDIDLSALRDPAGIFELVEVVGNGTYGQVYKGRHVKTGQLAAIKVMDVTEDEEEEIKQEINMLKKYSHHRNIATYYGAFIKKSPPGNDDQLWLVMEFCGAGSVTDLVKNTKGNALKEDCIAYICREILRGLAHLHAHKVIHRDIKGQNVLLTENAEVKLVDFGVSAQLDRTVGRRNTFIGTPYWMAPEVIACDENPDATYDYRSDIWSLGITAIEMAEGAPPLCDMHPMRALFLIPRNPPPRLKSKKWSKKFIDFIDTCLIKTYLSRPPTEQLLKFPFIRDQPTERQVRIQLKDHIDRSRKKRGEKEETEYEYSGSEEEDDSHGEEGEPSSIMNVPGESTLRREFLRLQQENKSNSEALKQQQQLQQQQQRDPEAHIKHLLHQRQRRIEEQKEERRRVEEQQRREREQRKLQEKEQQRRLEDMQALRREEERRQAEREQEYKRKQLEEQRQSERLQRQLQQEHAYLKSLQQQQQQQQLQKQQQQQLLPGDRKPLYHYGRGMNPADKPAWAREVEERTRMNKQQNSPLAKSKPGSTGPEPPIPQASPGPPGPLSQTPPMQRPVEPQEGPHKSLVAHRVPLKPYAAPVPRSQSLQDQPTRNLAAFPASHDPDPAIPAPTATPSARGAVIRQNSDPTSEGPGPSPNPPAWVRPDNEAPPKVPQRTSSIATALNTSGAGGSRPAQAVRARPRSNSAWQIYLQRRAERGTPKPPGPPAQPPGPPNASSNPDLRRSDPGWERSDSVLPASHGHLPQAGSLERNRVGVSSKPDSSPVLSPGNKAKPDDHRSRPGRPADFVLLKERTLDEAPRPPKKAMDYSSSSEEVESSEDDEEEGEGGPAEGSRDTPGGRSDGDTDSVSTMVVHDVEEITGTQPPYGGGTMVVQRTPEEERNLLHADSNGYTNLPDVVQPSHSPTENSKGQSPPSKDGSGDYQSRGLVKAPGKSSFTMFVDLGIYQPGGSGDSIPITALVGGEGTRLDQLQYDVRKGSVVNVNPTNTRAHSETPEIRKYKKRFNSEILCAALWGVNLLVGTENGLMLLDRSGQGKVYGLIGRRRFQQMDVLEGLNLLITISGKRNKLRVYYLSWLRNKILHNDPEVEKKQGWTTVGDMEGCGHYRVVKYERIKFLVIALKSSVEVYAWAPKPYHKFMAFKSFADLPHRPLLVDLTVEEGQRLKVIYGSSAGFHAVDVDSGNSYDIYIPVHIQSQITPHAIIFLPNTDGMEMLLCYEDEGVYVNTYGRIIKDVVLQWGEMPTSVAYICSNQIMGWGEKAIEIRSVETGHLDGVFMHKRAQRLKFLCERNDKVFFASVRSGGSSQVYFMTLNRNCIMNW

[2] = biological target: Bone morphogenetic protein receptor type-1A (Homo sapiens, UniProt P36894); assay: Selectivity interaction (KinomeScan (DiscoverX)) EUB0000595a BMPR1A; settings: at 10 µM
Bone morphogenetic protein receptor type-1A, sequence (P36894 whole entry): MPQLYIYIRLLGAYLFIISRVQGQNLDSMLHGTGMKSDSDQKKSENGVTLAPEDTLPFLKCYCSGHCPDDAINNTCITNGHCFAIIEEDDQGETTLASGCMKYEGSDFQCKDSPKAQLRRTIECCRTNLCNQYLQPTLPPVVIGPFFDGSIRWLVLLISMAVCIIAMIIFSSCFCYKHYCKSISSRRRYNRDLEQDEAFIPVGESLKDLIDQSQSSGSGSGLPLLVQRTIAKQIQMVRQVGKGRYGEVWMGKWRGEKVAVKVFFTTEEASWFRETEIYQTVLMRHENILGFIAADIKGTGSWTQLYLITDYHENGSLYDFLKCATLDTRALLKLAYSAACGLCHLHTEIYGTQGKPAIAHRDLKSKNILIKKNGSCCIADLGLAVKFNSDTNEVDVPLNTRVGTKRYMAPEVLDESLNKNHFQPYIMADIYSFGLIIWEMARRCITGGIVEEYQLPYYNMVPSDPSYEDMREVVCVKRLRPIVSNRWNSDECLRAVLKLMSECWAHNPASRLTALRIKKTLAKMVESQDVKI

[3] = biological target: T1, Dual specificity protein kinase TTK (Homo sapiens) (UniProt P33981); assay: Selectivity interaction (KinomeScan (DiscoverX)) EUB0001079a TTK; settings: at 1 µM
T1 sequence (whole entry): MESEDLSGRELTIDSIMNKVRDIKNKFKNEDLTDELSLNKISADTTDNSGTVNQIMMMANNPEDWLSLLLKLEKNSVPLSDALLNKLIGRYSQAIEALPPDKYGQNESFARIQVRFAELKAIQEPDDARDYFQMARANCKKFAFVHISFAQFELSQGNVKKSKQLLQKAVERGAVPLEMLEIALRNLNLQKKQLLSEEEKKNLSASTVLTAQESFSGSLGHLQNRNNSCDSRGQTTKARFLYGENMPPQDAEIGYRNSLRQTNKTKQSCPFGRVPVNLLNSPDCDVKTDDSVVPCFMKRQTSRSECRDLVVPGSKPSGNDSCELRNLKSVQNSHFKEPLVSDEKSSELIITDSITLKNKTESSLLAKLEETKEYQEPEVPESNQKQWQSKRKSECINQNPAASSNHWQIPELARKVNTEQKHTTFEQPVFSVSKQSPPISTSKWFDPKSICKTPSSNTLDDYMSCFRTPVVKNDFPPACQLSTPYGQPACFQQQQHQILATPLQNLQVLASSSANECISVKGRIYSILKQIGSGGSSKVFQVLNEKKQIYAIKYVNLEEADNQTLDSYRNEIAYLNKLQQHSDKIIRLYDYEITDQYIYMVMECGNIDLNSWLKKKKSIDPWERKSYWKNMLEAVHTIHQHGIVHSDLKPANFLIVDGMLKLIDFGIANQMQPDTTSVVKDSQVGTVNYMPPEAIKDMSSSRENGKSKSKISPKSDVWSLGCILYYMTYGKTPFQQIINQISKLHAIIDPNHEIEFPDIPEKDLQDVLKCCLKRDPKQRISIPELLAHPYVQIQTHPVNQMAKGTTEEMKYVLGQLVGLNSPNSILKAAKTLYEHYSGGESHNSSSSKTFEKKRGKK

[4] = biological target: cAMP-dependent protein kinase catalytic subunit beta (Homo sapiens) (UniProt P22694); assay: Selectivity interaction (KinomeScan (DiscoverX)) EUB0000045b PRKACB
[5] = biological target: T2, Serine/threonine-protein kinase TBK1 (Homo sapiens) (UniProt Q9UHD2); assay: Selectivity interaction (ActivX KiNativ screen (ex vivo kinase selectivity in human PBMCs)) EUB0001619a TBK1; assay type: cell-based; settings: PBMC, at 1 µM
T2 sequence (whole entry): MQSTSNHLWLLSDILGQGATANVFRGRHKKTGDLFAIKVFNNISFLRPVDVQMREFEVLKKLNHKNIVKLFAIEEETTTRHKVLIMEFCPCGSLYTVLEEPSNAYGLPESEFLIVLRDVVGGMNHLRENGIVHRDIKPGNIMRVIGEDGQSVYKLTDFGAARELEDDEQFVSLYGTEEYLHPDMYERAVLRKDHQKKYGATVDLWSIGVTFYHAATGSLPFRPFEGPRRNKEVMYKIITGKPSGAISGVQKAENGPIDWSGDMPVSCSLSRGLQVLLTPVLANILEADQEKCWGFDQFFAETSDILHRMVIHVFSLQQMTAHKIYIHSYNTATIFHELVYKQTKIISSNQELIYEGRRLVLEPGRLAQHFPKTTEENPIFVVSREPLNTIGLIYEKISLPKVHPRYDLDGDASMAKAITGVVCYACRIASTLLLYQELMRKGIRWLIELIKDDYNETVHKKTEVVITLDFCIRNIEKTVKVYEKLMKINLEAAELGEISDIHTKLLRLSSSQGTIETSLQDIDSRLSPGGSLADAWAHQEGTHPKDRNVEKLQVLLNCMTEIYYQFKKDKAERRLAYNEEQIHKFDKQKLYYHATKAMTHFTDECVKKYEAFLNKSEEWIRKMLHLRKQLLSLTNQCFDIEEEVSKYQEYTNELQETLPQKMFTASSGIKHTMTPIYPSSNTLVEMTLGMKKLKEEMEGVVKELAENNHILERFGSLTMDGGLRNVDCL

[6] = biological target: T3, TGF-beta receptor type-1 (Homo sapiens) (UniProt P36897); assay: Selectivity interaction (KinomeScan (DiscoverX)) EUB0000607a TGFBR1; settings: at 10 µM
T3 sequence (whole entry): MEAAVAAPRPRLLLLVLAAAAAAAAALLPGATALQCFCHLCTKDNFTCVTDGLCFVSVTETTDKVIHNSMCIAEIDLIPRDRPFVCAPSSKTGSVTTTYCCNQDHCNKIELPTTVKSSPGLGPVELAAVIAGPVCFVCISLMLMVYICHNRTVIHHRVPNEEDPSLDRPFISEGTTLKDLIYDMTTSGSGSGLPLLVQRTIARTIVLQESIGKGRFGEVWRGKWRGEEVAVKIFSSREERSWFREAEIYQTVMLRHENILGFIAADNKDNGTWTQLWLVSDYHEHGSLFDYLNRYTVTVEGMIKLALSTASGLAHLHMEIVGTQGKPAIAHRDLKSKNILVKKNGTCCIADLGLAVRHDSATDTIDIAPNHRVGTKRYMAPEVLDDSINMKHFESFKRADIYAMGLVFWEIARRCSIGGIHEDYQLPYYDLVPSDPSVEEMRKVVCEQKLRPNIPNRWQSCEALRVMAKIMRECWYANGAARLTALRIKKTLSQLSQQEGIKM

Casein kinase I isoform gamma-2 (Homo sapiens), sequence (P78368 whole entry, looked up, canonical isoform): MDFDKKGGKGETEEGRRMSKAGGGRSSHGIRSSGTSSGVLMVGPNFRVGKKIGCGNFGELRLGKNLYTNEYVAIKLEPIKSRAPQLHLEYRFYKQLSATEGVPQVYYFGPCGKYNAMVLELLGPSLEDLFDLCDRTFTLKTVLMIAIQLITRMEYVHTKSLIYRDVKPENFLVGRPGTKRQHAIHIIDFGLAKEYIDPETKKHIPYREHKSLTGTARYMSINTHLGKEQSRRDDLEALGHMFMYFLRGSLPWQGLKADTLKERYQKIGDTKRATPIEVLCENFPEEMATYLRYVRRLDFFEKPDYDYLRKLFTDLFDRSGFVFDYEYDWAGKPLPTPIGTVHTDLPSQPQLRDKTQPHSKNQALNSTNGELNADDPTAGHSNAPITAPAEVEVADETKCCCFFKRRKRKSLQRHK

% of inhibition ([1]; at 0.01 µM): 4.3% | % of inhibition ([1]; at 0.04 µM): 27.3% | % of inhibition ([1]; at 0.2 µM): 67% | % of inhibition ([1]; at 1 µM): 91% | % of inhibition ([1]; at 5 µM): 96.9%
SMILES: CC[C@@H]1[C@H](F)C(=O)N[C@@H]1COc1nccc2cc(C(N)=O)c(OC)cc12 [ZIMLOVISERTIB]

IC50 (Misshapen-like kinase 1): 1.57 µM
SMILES: CN1Cc2nccc(-c3cn(C)nc3-c3ccc(F)cc3)c2C1=O

SMILES: COCC(=O)NC/C=C/c1ccc2ncnc(Nc3ccc(Oc4ccc(C)nc4)c(C)c3)c2c1 [CP-724714]
% of control [2]: 100%

SMILES: Nc1cnc(N2CCc3cc(S(=O)(=O)Nc4c(F)cc(Cl)cc4F)cc(N4CCCC4=O)c32)nc1 [TP-020n]
% of control [3]: 90%

SMILES: C=CC(=O)Nc1cc(-n2c(=O)ccc3cnc4ccc(-c5ccc(NS(C)(=O)=O)cc5)cc4c32)ccc1C
% of control ([4]; at 1 µM): 79% | % of control ([4]; at 10 µM): 100%

SMILES: N#Cc1cccc(-c2c[nH]c3ncnc(N4CCOCC4)c23)c1
% of inhibition [5]: 19%

SMILES: CNC(=O)Nc1ccc(-c2nc(N3CC4CCC(C3)O4)c3cnn(C4CCC5(CC4)OCCO5)c3n2)cc1
% of control [6]: 100%
